# Laboratory results taken from patent US8871767B2, “2-arylimidazo[1,2-B]pyridazine, 2-phenylimidazo[1,2-A]pyridine, and 2-phenylimidazo[1,2-A]pyrazine derivatives” (Hengrui (USA) Ltd., priority 2010, dated 2014).
# Read-outs that look alike come from different tables or passages of the source.
# Legend:
# [1] = system: Hedgehog pathway activation (GLi-luciferase reporter) in Shh Light II reporter cells; assay: Hedgehog pathway activation on Shh Light II reporter cells measured by luciferase activity; assay type: cell-based; conditions: Mus musculus, Shh Light II
# Outline: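 Shh Light II reporter cells carrying a hedgehog-responsive GLi-luciferase reporter were stimulated either with 500 nM SAG, a direct Smoothened agonist, or with conditioned media containing human Sonic Hedgehog (hShh). Test compounds were evaluated for blocking this pathway activation, quantified by luciferase activity. Cell viability was monitored in parallel with the Celltiter-Blue® assay.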
# [2] = system: Hedgehog pathway activation on 10T1/2/Smo#3 cells (C3H10T1/2 cells transfected with human Smoothened receptor); assay: Hedgehog pathway activation on 10T1/2/Smo#3 cells measured by ALP activity; assay type: cell-based; conditions: Mus musculus, C3H 10T1/2, 10T1/2/Smo#3 cells
# Outline: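 C3H10T1/2 cells stably expressing human Smoothened were activated with hShh-conditioned medium (10-20%) or 500 nM SAG, with test compounds present. Pathway block read as inhibited ALP activity (4-methylumbelliferyl phosphate fluorescence); viability checked by CellTiter-Blue. IC50 values reported.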
# [3] = hShh activation, read-out: Shh (IC50, inhibition of Hedgehog pathway activation)
# [4] = measured by ALP activity, read-out: ALP (IC50, inhibition of Hedgehog pathway activation)
# [5] = SAG activation (500 nM SAG), read-out: Shh Light II luciferase activity (SAG activation)
# [6] = hShh activation, read-out: Shh Light II luciferase activity (hShh activation)
# [7] = hShh activation, ALP activity, read-out: 10T1/2/Smo#3 ALP activity (hShh Activation)
Structure (SMILES),"IC50 [1, 3] [nM]","IC50 [2, 4] [nM]","IC50 [1, 5] [nM]","IC50 [1, 6] [nM]","IC50 [2, 7] [nM]"
CC1CN(C(=N)N)CCN1c1ccc2nc(-c3ccc(C(F)(F)F)c(NC(=O)C(C)(C)C)c3)cn2n1 (centres unmarked) [compound 571],129,554,,,
Cc1ccc(-c2cn3nc(-c4ccc(C=CC(=O)NO)cc4)ccc3n2)cc1NC(=O)C(C)(C)C [compound 560],402,481,3000 to 30000,< 300,300 to 3000
"CCOc1ccc2nc(-c3ccc(C(F)(F)F)c(NC(=O)Cc4ccccc4)c3)cn2n1 [Example 194, N-(5-(6-ethoxyimidazo[1,2-b]pyridazin-2-yl)-2-(trifluoromethyl)phenyl)-2-phenylacetamide]",1750,> 10000,,,
"Cc1ccc(-c2cn3nc(-c4cccc(S(=O)(=O)N(C)C)c4)ccc3n2)cc1NC(=O)C(C)(C)C [Example 451, N-(5-(6-(3-(N,N-dimethylsulfamoyl)phenyl)imidazo[1,2-b]pyridazin-2-yl)-2-methylphenyl)pivalamide]",960,1000,,,
"CCOc1ccc2nc(-c3ccc(C(F)(F)F)c(NC(=O)CC(C)(C)C)c3)cn2n1 [Example 187, N-(5-(6-ethoxyimidazo[1,2-b]pyridazin-2-yl)-2-(trifluoromethyl)phenyl)-3,3-dimethylbutanamide]",> 10000,> 10000,,,
Cc1ccc(-c2cn3nc(-c4cc(C(N)=NO)ccc4Cl)ccc3n2)cc1NC(=O)C(C)(C)C [compound 569],32,86,300 to 3000,< 300,< 300
"Cc1cc(-c2ccc3nc(-c4ccc(C(F)(F)F)c(NC(=O)C(C)(C)C)c4)cn3n2)ccn1 [Example 381, N-(5-(6-(2-methylpyridin-4-yl)imidazo[1,2-b]pyridazin-2-yl)-2-(trifluoromethyl)phenyl)pivalamide]",1250,580,,,
"CC(C)(C)C(=O)Nc1cc(-c2cn3nc(-c4ccccn4)ccc3n2)ccc1C(F)(F)F [Example 141, N-(5-(6-(pyridin-2-yl)imidazo[1,2-b]pyridazin-2-yl)-2-(trifluoromethyl)phenyl)pivalamide]",260,9060,< 300,< 300,3000 to 30000
"Cc1c(-c2ccccc2)nc2ccc(N3CCN(Cc4ccc(OC(F)(F)F)cc4)CC3)nn12 [Example 166, 3-methyl-2-phenyl-6-(4-(4-(trifluoromethoxy)benzyl)piperazin-1-yl)imidazo[1,2-b]pyridazine]",995,1970,,,
"COc1ccc(-c2ccc3nc(-c4ccc(C(F)(F)F)c(NC(=O)C(C)(C)C)c4)cn3n2)cn1 [Example 170, N-(5-(6-(6-methoxypyridin-3-yl)imidazo[1,2-b]pyridazin-2-yl)-2-(trifluoromethyl)phenyl)pivalamide]",562,681,,,
"CCOc1ccc2nc(-c3ccc(C(F)(F)F)c(S(=O)(=O)NC)c3)cn2n1 [Example 217, 5-(6-ethoxyimidazo[1,2-b]pyridazin-2-yl)-N-methyl-2-(trifluoromethyl)benzenesulfonamide]",6600,535,,,

# Continued by falling IC50 [1, 3], values first:
"IC50 [1, 3] [nM]","IC50 [2, 4] [nM]","IC50 [1, 5] [nM]","IC50 [1, 6] [nM]","IC50 [2, 7] [nM]",Structure (SMILES)
6060,> 10000,,,,"CC(C)(C)C(=O)Nc1cc(-c2cn3ccc(Cl)cc3n2)ccc1C(F)(F)F [Example 82, N-(5-(7-chloroimidazo[1,2-a]pyridin-2-yl)-2-(trifluoromethyl)phenyl)pivalamide]"
2650,7000,3000 to 30000,300 to 3000,3000 to 30000,"COc1ccc2nc(-c3ccc(C)c(NC(=O)C(C)(C)C)c3)c(Cl)n2n1 [Example 109, N-(5-(3-chloro-6-methoxyimidazo[1,2-b]pyridazin-2-yl)-2-methylphenyl)pivalamide]"
911,404,300 to 3000,300 to 3000,300 to 3000,"Cc1c(-c2ccccc2)nc2ccc(N3CCN(Cc4cccnc4)CC3)nn12 [Example 161, 3-methyl-2-phenyl-6-(4-(pyridin-3-ylmethyl)piperazin-1-yl)imidazo[1,2-b]pyridazine]"
657,704,,,,"CC(C)(C)C(=O)Nc1cc(-c2cn3nc(OCCO)ccc3n2)ccc1C(F)(F)F [Example 377, N-(5-(6-(2-hydroxyethoxy)imidazo[1,2-b]pyridazin-2-yl)-2-(trifluoromethyl)phenyl)pivalamide]"
518,3610,,,,"O=C(CC(F)(F)F)Nc1cc(-c2cn3nc(-c4cccnc4C(F)(F)F)ccc3n2)ccc1F [Example 680, 3,3,3-trifluoro-N-(2-fluoro-5-(6-(2-(trifluoromethyl)pyridin-3-yl)imidazo[1,2-b]pyridazin-2-yl)phenyl)propanamide]"
321,333,,,,"CC1CN(C2CCN(c3ccc4nc(-c5ccc(C(F)(F)F)c(NC(=O)C(C)(C)C)c5)cn4n3)CC2)CC(C)O1 (centres unmarked) [Example 370, N-(5-(6-(4-(2,6-dimethylmorpholino)piperidin-1-yl)imidazo[1,2-b]pyridazin-2-yl)-2-(trifluoromethyl)phenyl)pivalamide]"
316,1190,3000 to 30000,< 300,300 to 3000,Cc1ccc(-c2cn3nc(-c4cccc(C=CC(=O)O)c4)ccc3n2)cc1NC(=O)C(C)(C)C [compound 554]
121,675,,,,"CCOC(=O)CCCOc1ccc(-c2ccc3nc(-c4ccc(C)c(NC(=O)C(C)(C)C)c4)cn3n2)c(C(F)(F)F)n1 [Example 432, ethyl 4-(5-(2-(4-methyl-3-pivalamidophenyl)imidazo[1,2-b]pyridazin-6-yl)-6-(trifluoromethyl)pyridin-2-yloxy)butanoate]"
82,443,,,,Cc1ccc(-c2cn3nc(-c4ccc(C#N)cc4F)ccc3n2)cc1NC(=O)C(C)(C)C [compound 545]
65,141,,,,"CC(C)(C)C(=O)Nc1cc(-c2cn3nc(-c4cc(Cl)ccc4F)ccc3n2)ccc1C(F)(F)F [Example 227, N-(5-(6-(5-chloro-2-fluorophenyl)imidazo[1,2-b]pyridazin-2-yl)-2-(trifluoromethyl)phenyl)pivalamide]"
64,203,,,,"CCCC(C)(C)C(=O)Nc1cc(-c2cn3nc(-c4cccnc4C(F)(F)F)ccc3n2)ccc1Cl [Example 667, N-(2-chloro-5-(6-(2-(trifluoromethyl)pyridin-3-yl)imidazo[1,2-b]pyridazin-2-yl)phenyl)-2,2-dimethylpentanamide]"
32,17,,,,"CC(C)(C(=O)Nc1cc(-c2cn3nc(-c4cccnc4C(F)(F)F)ccc3n2)c(F)cc1Cl)C(F)(F)F [Example 660, N-(2-chloro-4-fluoro-5-(6-(2-(trifluoromethyl)pyridin-3-yl)imidazo[1,2-b]pyridazin-2-yl)phenyl)-3,3,3-trifluoro-2,2-dimethylpropanamide]"
19,120,,,,"CC(C)(C(=O)Nc1cc(-c2cn3nc(-c4cccnc4C(F)(F)F)ccc3n2)ccc1Cl)C(F)(F)F [Example 665, N-(2-chloro-5-(6-(2-(trifluoromethyl)pyridin-3-yl)imidazo[1,2-b]pyridazin-2-yl)phenyl)-3,3,3-trifluoro-2,2-dimethylpropanamide]"
18,94,,,,Cc1ccc(-c2cn3nc(-c4cc(C#N)ccc4C(F)(F)F)ccc3n2)cc1NC(=O)C(C)(C)C [compound 596]
